Measured values reported in patent US8481738B2, “Gonadotropin-releasing hormone receptor antagonists and methods relating thereto” (Neurocrine Biosciences, Inc., priority 2007, dated 2013).
pKi: −log10 of the molar value.

Target: T1, human GnRH receptor (Homo sapiens, UniProt P30968)
T1 construct: expressed in transfected cells; host or cells: RBL cells, stably transfected (in general)
T1 sequence (P30968 1-328): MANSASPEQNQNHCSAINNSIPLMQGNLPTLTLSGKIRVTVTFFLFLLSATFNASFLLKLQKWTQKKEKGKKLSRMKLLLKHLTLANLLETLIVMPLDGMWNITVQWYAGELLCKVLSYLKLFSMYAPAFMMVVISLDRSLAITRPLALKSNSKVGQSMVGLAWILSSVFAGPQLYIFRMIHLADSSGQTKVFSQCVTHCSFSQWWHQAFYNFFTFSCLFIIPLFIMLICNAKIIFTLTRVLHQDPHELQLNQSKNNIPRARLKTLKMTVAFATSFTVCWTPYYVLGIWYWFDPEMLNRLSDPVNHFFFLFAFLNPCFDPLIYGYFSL
Experiment: Peptide competition radioligand binding displacement assay, human GnRH receptor membranes
Conditions: one or more of the peptide competition human receptor binding assays
Procedure: cDNA's of human, rhesus macaque, rabbit, dog and rat GnRH receptors are cloned into pcDNA3.1 (+) (Invitrogen). Full length sequences of all receptors are confirmed by DNA sequencing. HEK 293, CHO, COS-7, or rat basophilic leukemia (RBL) cells are stably transfected with human, rat, or macaque GnRH receptors and high expressing single cell clones (Bmax≧0.4 pMol/mg membrane protein) are isolated and maintained in Dulbecco's Modified Eagles Medium (DMEM) with following supplements: 10 mM HEPES; 2 mM L-glutamine; 1 mM Sodium Pyruvate; 50 U/mL penicillin, 50 μg/mL streptomycin; 10% Heat-inactivated Fetal Bovine Serum and 200 μg/mL Geneticin (G-418-Sulfate). Non-essential amino acids (0.1 mM) (Irvine Scientific; Santa Ana, Calif.) are included in the RBL cell media.
In general, initial peptide radioligand binding assays are carried out using membranes from stably transfected RBL cells. RBL stable clones are found to more consistently express high levels of GnRH receptor and are therefore used for subsequent binding studies as well as Ca^++ flux and inositol phosphate accumulation assays. Transiently transfected COS-7 cells are used for preparation of membranes containing GnRH receptors from multiple species (as well as those of mutant receptors for other studies) because of the convenience for rapidly analyzing multiple receptors.
HEK293 cells stably transfected with the human GnRH receptor are grown for two days after achieving confluence then are harvested by striking tissue culture flasks against a firm surface. Cells are collected by centrifugation at 1000 g for 5 minutes. Cell pellets are resuspended in 5% sucrose and homogenized using a polytron homogenizer for two 15 second homogenization steps. Cell homogenates are then centrifuged for 5 minutes at 3000 g to remove nuclei and the supernatant subsequently centrifuged for 30 minutes at 44,000 g to collect the membrane fraction. The membrane pellet is resuspended in GnRH binding buffer (10 mM HEPES, pH 7.5, 150 mM NaCl and 0.1% BSA) and aliquots immediately snap-frozen in liquid nitrogen and stored at −80° C. Protein content of the membrane suspension is determined using the Bio-Rad protein assay kit (Bio-Rad).
RBL cells stably transfected with the human GnRH receptor are grown to 80% confluency prior to harvesting. The cells are incubated at 37° C. for 10 min in 0.5 mM EDTA/PBS (Ca^++, Mg^++ free), and are dislodged from the plate by gentle rapping of the flasks. Cells are collected and pelleted by centrifugation at 1000 g for 5 minutes. Cell pellets are resuspended in buffer (DPBS supplemented with 10 mM MgCl2, 2 mM EGTA, pH=7.4), and cell lysis is performed using a pressure cell and applying N2 at a pressure of 900 psi for 30 min at 4° C. Unbroken cells and larger debris were removed by centrifugation at 1200 g for 10 min at 4° C. The cell membrane supernatant is then centrifuged at 45,000 g and the resulting membrane pellet is resuspended in assay buffer and homogenized on ice using a tissue homogenizer. Protein concentrations are determined using the Coomassie Plus Protein Reagent kit. Membranes are aliquoted and stored at −80° C. until ready for use.
COS-7 cells transiently transfected with GnRH receptors from different species (human, macaque, dog, rabbit, rat) or mutant GnRH receptors are prepared by bulk electroporation. COS-7 cells are obtained from American Type Cell Culture (Manassas, Va.) and are maintained in Dulbeccos's modified Eagle's medium (DMEM) (MediaTech Inc., Herndon, Va.) containing 10% fetal bovine serum, 10 mM HEPES, 2 mM L-glutamine, 1 mM sodium pyruvate, 50 U/mL penicillin, 50 μg/mL streptomycin. COS-7 cells are seeded in 500 cm^2 tissue culture plates and grown to confluency prior to cell transfection. […]

| pKi | Structure (SMILES) |
| --- | --- |
| ≥ 7.00 | COc1ccccc1N(C)C(=O)c1ccc(Cl)c(-c2ccc(C#N)nc2)c1 [2-2, 4-chloro-3-(6-cyano-pyridin-3-yl)-N-(2-methoxy-phenyl)-N-methyl-benzamide] |
| ≥ 7.00 | COc1ccccc1N(C)C(=O)c1ccc(Cl)c(-c2cnc(Cl)cc2Cl)c1 [2-3] |
| ≥ 7.00 | COc1ccccc1N(C)C(=O)c1ccc(Cl)c(-c2ccc(Cl)nc2Cl)c1 [2-6] |
| ≥ 7.00 | COc1ccccc1N(C)C(=O)c1ccc(Cl)c(-c2cnc(C)cc2Cl)c1 [2-8] |
| ≥ 7.00 | COc1ccccc1N(C)C(=O)c1ccc(Cl)c(-c2cnc(C)cc2C)c1 [2-9] |
| ≥ 7.00 | COc1ccccc1N(C)C(=O)c1ccc(Cl)c(-c2cnc(C#N)cc2C)c1 [2-10, 4-chloro-3-(6-cyano-4-methyl-pyridin-3-yl)-N-(2-methoxy-phenyl)-N-methyl-benzamide] |
| ≥ 7.00 | COc1ccccc1N(C)C(=O)c1ccc(Cl)c(-c2ccc(C(F)(F)F)nc2)c1 [2-11] |
| ≥ 7.00 | COc1ccccc1N(C)C(=O)c1ccc(Cl)c(-c2cnc(C(F)(F)F)cc2C)c1 [2-12] |
| ≥ 7.00 | COc1ccccc1N(C)C(=O)c1ccc(Cl)c(-c2cnc(C(F)(F)F)cc2C#N)c1 [2-14] |
| ≥ 7.00 | Cc1ccccc1N(C)C(=O)c1ccc(Cl)c(-c2ccc(Cl)nc2)c1 [2-15] |
| ≥ 7.00 | Cc1cc(Cl)c(-c2cc(C(=O)N(C)c3ccccc3C)ccc2Cl)cn1 [2-16] |
| ≥ 7.00 | Cc1cc(Cl)ncc1-c1cc(C(=O)N(C)c2ccccc2C)ccc1Cl [2-18] |
| ≥ 7.00 | Cc1cc(Cl)c(-c2cc(C(=O)N(C)c3c(C)cccc3C)ccc2Cl)cn1 [2-19] |
| ≥ 7.00 | Cc1cc(Cl)c(-c2cc(C(=O)N(C)c3cccc(C)c3C)ccc2Cl)c(C)n1 [2-21] |
| ≥ 7.00 | Cc1cc(Cl)c(-c2cc(C(=O)N(C)c3cccc(C)c3C)ccc2Cl)cn1 [2-22] |
| ≥ 7.00 | Cc1cc(Cl)c(-c2cc(C(=O)N(C)c3cccc(C(F)(F)F)c3C)ccc2Cl)cn1 [2-24] |
| ≥ 7.00 | Cc1cc(Cl)c(-c2cc(C(=O)N(C)c3cccc(C(F)(F)F)c3C)ccc2Cl)c(C)n1 [2-25] |
| ≥ 7.00 | COc1cc(C)c(-c2cc(C(=O)N(C)c3c(C)cccc3OC)ccc2Cl)cn1 [2-26] |
| ≥ 7.00 | COc1cccc(C)c1N(C)C(=O)c1ccc(Cl)c(-c2cnc(C)cc2Cl)c1 [2-27] |
| ≥ 7.00 | COc1cccc(C)c1N(C)C(=O)c1ccc(Cl)c(-c2cnc(Cl)cc2Cl)c1 [2-29] |
| ≥ 7.00 | COc1cccc(C)c1N(C)C(=O)c1ccc(Cl)c(-c2cnc(Cl)cc2C)c1 [2-31, 4-chloro-3-(6-chloro-4-methyl-pyridin-3-yl)-N-(2-methoxy-6-methyl-phenyl)-N-methyl-benzamide] |

| pKi | Structure (SMILES) |
| --- | --- |
| ≥ 7.00 | COc1cccc(C)c1N(C)C(=O)c1ccc(Cl)c(-c2cnc(C(F)(F)F)cc2C)c1 [2-33] |
| ≥ 7.00 | COc1cccc(C)c1N(C)C(=O)c1ccc(Cl)c(-c2cnc(C#N)cc2C)c1 [2-34] |
| ≥ 7.00 | COc1cccc(C)c1N(C)C(=O)c1ccc(Cl)c(-c2cnc(C(F)(F)F)cc2C#N)c1 [2-35] |
| ≥ 7.00 | Cc1cc(Cl)ncc1-c1cc(C(=O)N(C)c2ccccc2F)ccc1Cl [2-36] |
| ≥ 7.00 | Cc1cc(Cl)c(-c2cc(C(=O)N(C)c3ccccc3F)ccc2Cl)cn1 [2-37] |
| ≥ 7.00 | Cc1cc(Br)ncc1-c1cc(C(=O)N(C)c2ccccc2F)ccc1Cl [2-39] |
| ≥ 7.00 | COc1c(Cl)cccc1N(C)C(=O)c1ccc(Cl)c(-c2cnc(Cl)cc2C)c1 [2-42] |
| ≥ 7.00 | COc1cc(C)c(-c2cc(C(=O)N(C)c3cccc(Cl)c3OC)ccc2Cl)cn1 [2-45] |
| ≥ 7.00 | COc1c(Cl)cccc1N(C)C(=O)c1ccc(Cl)c(-c2cnc(C)cc2Cl)c1 [2-46] |
| ≥ 7.00 | COc1ccccc1N(C)C(=O)c1ccc(Cl)c(-c2nc3ccccc3cc2C=O)c1 [2-48] |
| ≥ 7.00 | COc1ccccc1N(C)C(=O)c1ccc(Cl)c(-c2nc3ccccc3cc2C#N)c1 [2-49] |
| ≥ 7.00 | COc1ccccc1N(C)C(=O)c1ccc(Cl)c(-c2ncnc3scc(C)c23)c1 [2-50] |
| ≥ 7.00 | COc1ccccc1N(C)C(=O)c1ccc(Cl)c(-c2ccc(C(F)(F)F)cc2C#N)c1 [2-53] |
| ≥ 7.00 | COc1ccccc1N(C)C(=O)c1ccc(Cl)c(-c2ccc(Cl)cc2Cl)c1 [2-54] |
| ≥ 7.00 | COc1ccccc1N(C)C(=O)c1ccc(Cl)c(-c2ccc(Cl)cc2C#N)c1 [2-55] |
| ≥ 7.00 | COc1ccccc1N(C)C(=O)c1ccc(Cl)c(-c2ncc(Cl)cc2C)c1 [2-57] |
| ≥ 7.00 | COc1ccccc1N(C)C(=O)c1ccc(Cl)c(-c2ncc(C)cc2Cl)c1 [2-58] |
| ≥ 7.00 | COc1ccccc1N(C)C(=O)c1ccc(Cl)c(-c2ncc(F)cc2F)c1 [2-59] |
| ≥ 7.00 | COc1ccccc1N(C)C(=O)c1ccc(Cl)c(-c2ncc(C)cc2C)c1 [2-60] |
| ≥ 7.00 | Cc1cc(Cl)cnc1-c1cc(C(=O)N(C)c2ccccc2F)ccc1Cl [2-62] |
| ≥ 7.00 | Cc1cc(Cl)cnc1-c1cc(C(=O)N(C)c2c(C)cccc2C)ccc1Cl [2-63] |

| pKi | Structure (SMILES) |
| --- | --- |
| ≥ 7.00 | Cc1cnc(-c2cc(C(=O)N(C)c3c(C)cccc3C)ccc2Cl)c(Cl)c1 [2-64] |
| ≥ 7.00 | Cc1cccc(C)c1N(C)C(=O)c1ccc(Cl)c(-c2ncc(C(F)(F)F)cc2Cl)c1 [2-65] |
| ≥ 7.00 | Cc1cnc(-c2cc(C(=O)N(C)c3cccc(C)c3C)ccc2Cl)c(Cl)c1 [2-67] |
| ≥ 7.00 | Cc1cnc(-c2cc(C(=O)N(C)c3cccc(C)c3C)ccc2Cl)c(C)c1 [2-68] |
| ≥ 7.00 | COc1cccc(C)c1N(C)C(=O)c1ccc(Cl)c(-c2ncc(Cl)cc2Cl)c1 [2-69] |
| ≥ 7.00 | COc1c(Cl)cccc1N(C)C(=O)c1ccc(Cl)c(-c2ncc(C)cc2C)c1 [2-70] |
| ≥ 7.00 | Cc1cc(Cl)cnc1-c1cc(C(=O)N(C)c2cccc(C)c2C)ccc1Cl [2-71] |
| ≥ 7.00 | COC(=O)c1ccccc1N(C)C(=O)c1ccc(Cl)c(-c2ncc(Cl)cc2C)c1 [2-72] |
| ≥ 7.00 | COC(=O)c1ccccc1N(C)C(=O)c1ccc(Cl)c(-c2ncc(C(F)(F)F)cc2Cl)c1 [2-75] |
| ≥ 7.00 | CN(C(=O)c1ccc(Cl)c(-c2ncc(C(F)(F)F)cc2Cl)c1)c1ccccc1F [2-76] |
| ≥ 7.00 | COC(=O)c1ccccc1N(C)C(=O)c1ccc(Cl)c(-c2ncc(C)cc2Cl)c1 [2-77] |
| ≥ 7.00 | COc1ccccc1N(C)C(=O)c1ccc(Cl)c(-c2nc3ccccc3cc2C)c1 [2-79] |
| ≥ 7.00 | COc1ccccc1N(C)C(=O)c1ccc(Cl)c(-c2nc(C)c(Cl)cc2Cl)c1 [2-80] |
| ≥ 7.00 | CSc1ccccc1N(C)C(=O)c1ccc(Cl)c(-c2cnc(C(F)(F)F)cc2C#N)c1 [2-81] |
| ≥ 7.00 | COC(=O)COc1ccccc1N(C)C(=O)c1ccc(Cl)c(-c2cnc(Cl)cc2C)c1 [3-1, (2-{[4-chloro-3-(6-chloro-4-methyl-pyridin-3-yl)-benzoyl]-methyl-amino}-phenoxy)-acetic acid methyl ester] |
| ≥ 7.00 | COC(=O)CCCOc1ccccc1N(C)C(=O)c1ccc(Cl)c(-c2cnc(Cl)cc2C)c1 [3-2] |
| ≥ 7.00 | COC(=O)COc1ccccc1N(C)C(=O)c1ccc(Cl)c(-c2cnc(C#N)cc2C)c1 [3-3] |
| ≥ 7.00 | COC(=O)COc1ccccc1N(C)C(=O)c1ccc(Cl)c(-c2cnc(C)cc2Cl)c1 [3-4] |
| ≥ 7.00 | COC(=O)CCCOc1cccc(C)c1N(C)C(=O)c1ccc(Cl)c(-c2cnc(Cl)cc2C)c1 [3-5] |
